Where a name gives a salt, the structure may show the parent alone.
Experiments:
perfused rabbit ear = assay: Blood-flow change in perfused isolated rabbit ear, vaso-dilator activity (Ringer-Norfenefrin solution)
Experimental: (3) Blood-flow change in an isolated rabbit ear
The tests were carried out according to Krakow-Pissemski (Pflugers Archiv 151 (1913), page 583 and 156 (1914), page 426). In Table 5a the estimated values of the vaso-constrictor activity in Ringer solutions of varying concentrations are given and in Table 5b values for vasodilatory activity in Ringer-Norfenefrin solutions of varying concentrations are given. As a comparison, the values obtained with the known preparation aescin sodium are given.

[1] = tested on: isolated guinea-pig heart; assay: Relative coronary blood-flow change in isolated guinea-pig heart (Langendorff)
Experimental: (4) Relative coronary blood-flow change in an isolated guinea-pig heart.
The tests were carried out according to the method of Langendorff (Pflugers Archiv. 61 (1895), page 219).
In Table 5, the change in coronary blood flow after administration of various quantities of the test substance is compared with that after administration of the known compounds heptaminol and Aescin sodium salt.

[2] = tested on: permeability of the capillaries; assay: Histamine rash test (modified Halpern), capillary permeability; type: in vivo; settings: 30 minutes before histamine
Experimental: The test according to Halpern (Presse medicale 65 (1949), page 949) was used in modified form. The suppressive effect of the compounds according to the invention on the permeability of the capillaries was tested. The blue coloration induced by intravenous administration of trypan blue at two intracutaneous histamine injection points per animal, (trypan blue administered 2 minutes before the histamine), was estimated according to the following scale of values:
indications of blue coloration
clear blue coloration =4
stong blue coloration =6
The preceding evaluation was made from the combined effect at the two injection points.
The test substances were administered i.p. 30 minutes before the histamine injection.

mouse [3] = assay: Toxicity in the mouse (Litchfield and Wilcoxon); type: in vivo
Experimental: (§1) (6) Toxicity in the mouse
(§2) Toxicity was determined according to Litchfield and Wilcoxon (J. Pharmacol. exp. Ther. 97 (1949), page 399) in the mouse. In comparison, the values with the known substance aescin sodium salt were determined. Comparative tests with 0.1% solution, of venous and optical compatibility on the rabbit yielded similar results.

[4] = tested on: carrageenin oedema in the rat paw; assay: Suppression of carrageenin oedema in the rat paw (Siegmund); type: in vivo; settings: 3 h p.a.
Experimental: (7) Suppression of carrageenin oedema in the rat paw
The inflammation-reducing and anti-oedematous effects on carrageenin and serotonin oedemas in the rat paw were studied according to Siegmund et al (Proc. Soc. exp. Biol. Med. 95 (1957), page 729). The values are given as percentages, based on the values obtained in control tests using a dummy procedure. In this way, the antiphlogistic activity of the substances according to the invention was tested.

isolated portal vein = assay: Isolated rat's portal vein (Berti), increase in tonus
Experimental: (2) Isolated rat's portal vein
The tests on the rat's portal vein, an organ with its own rhythm, were performed according to the method of Berti et al (Arch. int. Pharmacodyn. 184 (1970), page 328). In Table 4, the increase in tonus at various adrenalin concentrations is given in milligrams. As a comparison, the values for the known substance heptaminol (=6-amino-2-methylheptane-2-ol) are also given.

[5] = Toxicity in the mouse (Litchfield and Wilcoxon); type: in vivo; settings: mouse, in vivo
Experimental: as §1, §2

[6] = tested on: writhing movements in the mouse; assay: Writhing test (Winter); type: in vivo
Excerpt: The analgesic activity of the compounds according to the invention were studied by the method of Winter et al (Proc. Soc. exp. Biol. Med, 111 (1962), page 544), in which the suppression of writhing movements in the mouse was observed.

mouse [7] = assay: Hot-plate test (Chen and Beckman); type: in vivo
Experimental: This test was performed on the mouse, according to Chen and Beckman (see Science 113 (1951), page 631). 50 mg/kg of the compound No. 2 (cf. formula sheet) which has been administered per os increase the reaction time of the animals by 70%.

isolated vein sections = assay: Isolated vein section (modified Furchgott), contraction in adrenalin; parameters: species or system rabbit; settings: in words
Experimental: (§3) (1) Isolated vein and aorta sections
(§4) The tests were carried out on isolated vein and aorta sections from rabbits in accordance with the modified method of Furchgott et al (J. Pharmacol, exp. Ther. 108 (1953), page 129). The contraction of the vein section in adrenalin and of the aorta section in noradrenalin, after administration of 10^-6 g/ml of the test compound was defined to have the base value of 100.

isolated aorta sections = assay: Isolated aorta section (modified Furchgott), contraction in noradrenalin; parameters: species or system rabbit; settings: in words
Experimental: as §3, §4

[8] = 100 μg (first figure where two are given)

| Structure (SMILES) | Relative change in blood flow, vaso-dilator activity (perfused rabbit ear; 3 × 10^-5 g/ml) | Relative change in blood flow, vaso-dilator activity (perfused rabbit ear; 10^-5 g/ml) | Relative change in blood flow, vaso-dilator activity (perfused rabbit ear; 10^-6 g/ml) | Relative change in blood flow, vaso-dilator activity (perfused rabbit ear; 10^-7 g/ml) | Relative change in coronary blood flow [1, 8] | Histamine rash test, blue coloration score (0 = none, 2 = indications, 4 = clear, 6 = strong) ([2]; 1.0 mg/kg i.p.) | Histamine rash test, blue coloration score (0 = none, 2 = indications, 4 = clear, 6 = strong) ([2]; 3.0 mg/kg i.p.) | Suppression of carrageenin oedema in the paw (antiphlogistic activity) ([4]; 100 mg/kg p.o.) | Increase in tonus, isolated rat's portal vein (isolated portal vein; 10^-4 g/ml) | Increase in tonus, isolated rat's portal vein (isolated portal vein; 10^-5 g/ml) | LD50 ([5]; ip) | LD50 ([5]; po) | Suppression of writhing movements ([6]; 50 mg/kg p.o.) | other results |
| --- | --- | --- | --- | --- | --- | --- | --- | --- | --- | --- | --- | --- | --- | --- |
| CCCCCC(C)NCc1c(C)cc(C)cc1C (single isomer, unassigned) [compound 4] | +31 | +104 | +40 | +4 | +125 | 3.1 | 1.7 | 14% |  |  |  |  |  | Toxicity in the mouse (mouse [3]; i.p.): 50 to 100 mg/kg; Toxicity in the mouse (mouse [3]; i.v.): 12,4 mg/kg |
| CCCCCC(C)NCc1c(C)cc(C)cc1C (stereo not shown) [Serial No. 2, 2-(2,4,6-Trimethylbenzyl)-aminoheptane hydrochloride] |  | +73 | +31 | +3 | +120 | 2.6 | 1.7 | 46% | +185 milligrams | +106 milligrams | 114 mg/kg | 940 mg/kg | 53% | Relative change in blood flow, vaso-dilator activity (perfused rabbit ear; 10^-4 g/ml): +112; Histamine rash test, blue coloration score (0 = none, 2 = indications, 4 = clear, 6 = strong) ([2]; 0.1 mg/kg i.p.): 3.5; Histamine rash test, blue coloration score (0 = none, 2 = indications, 4 = clear, 6 = strong) ([2]; 0.3 mg/kg i.p.): 3.4; Histamine rash test, blue coloration score (0 = none, 2 = indications, 4 = clear, 6 = strong) ([2]; 10.0 mg/kg i.p.): 1.9; LD50 ([5]; iv): 11.7 mg/kg; Suppression of carrageenin oedema in the paw (antiphlogistic activity) ([4]; 25 mg/kg p.o.): 53%; Suppression of carrageenin oedema in the paw (antiphlogistic activity) ([4]; 63 mg/kg p.o.): 52%; Suppression of writhing movements ([6]; 40 mg/kg p.o.): 32%; Suppression of writhing movements ([6]; 63 mg/kg p.o.): 51%; Suppression of writhing movements ([6]; 100 mg/kg p.o.): 80%; Increase in reaction time of the animals (mouse [7]; 50 mg/kg per os): 70% |
| CCCCCCC(C)NCc1c(C)cc(C)cc1C (stereo not shown) [Serial No. 26] |  | +58 | +29 | +7 |  | 1.8 | 1.2 | 39% |  |  | 50 to 100 mg/kg |  | 45% | Vasotonic activity compared with aescin sodium (vein, Table 2) (isolated vein sections): stronger vasotonic activity than the comparison substance aescin sodium; Relative change in coronary blood flow ([1]; 10 μg (first figure where two are given)): +28; Relative change in coronary blood flow ([1]; 30 μg (first figure where two are given)): +57 |
| CCC(C)C(C)NCc1c(C)cc(C)cc1C (stereo not shown) [Serial No. 27] | +12 |  | +4 |  |  | 3.6 | 1.9 |  | +250 milligrams | +19 milligrams | 100 to 250 mg/kg | 2400 mg/kg |  | Vasotonic activity compared with aescin sodium (aorta, Table 3) (isolated aorta sections): stronger vasotonic activity than the comparison substance aescin sodium; Increase in tonus, isolated rat's portal vein (isolated portal vein; 10^-6 g/ml): -9 milligrams |
| Cc1c(N(C)C)c(=O)n(-c2ccccc2)n1C [aminophenazone, reference compound] |  |  |  |  |  |  |  |  |  |  |  |  |  | ED50 (mouse [7]; Mus musculus, comparison substance, read-out: Effective dose of 50% (ED 50), hot-plate test): 84 mg/kg |

— patent US4312861A, “Pharmaceutical compositions containing N-alkyl-N-(nuclearly-substituted) benzylamines having vasotonia-regulating activity” (Hoechst Aktiengesellschaft, priority 1974, dated 1982)
